Test results reported in US10105443B2, “Sustained-release drug carrier composition” (POLYPID LTD., priority 2008, dated 2018).

Legend:
Format in all cases: physicochemical
[1] = Release of drug from bone filler particles coated with the matrix composition following hydration; settings: for kinetics of co-release from the surface of coated bone particles: surrounding medium 5% PBS at 37° C., FIG. 15; for period of constant release of DOX: bone filler particles (BioOss) coated with matrix PLGA 85:15, cholesterol, DSPC (18:0), with or without alpha-tocopherol
Protocol: • 50-75 KDa PLGA (poly (lactic-co-glycolic acid, 85:15 ratio)) • Cholesterol-50%-100% w/w vs. PLGA. The mixture is mixed. The entire process is performed at room temperature. A fat-polymer combination matrix is thus obtained. II. Preparation of Second Solution The following materials are mixed with a volatile organic solvent (methanol and ethyl acetate) • a. […] A phosphatidylcholine, —1,2-distearoyl-sn-glycero-3-phosphocholine (DSPC) present as 300-700% w/w vs. PLGA. The mixture is mixed well. The entire process is conducted at room temperature. When phosphatidylcholine having long saturated fatty chains is used (e.g. DSPC) the process is typically performed at higher temperatures of about 40-50° C. No water is required in the mixture. […] Stirring is continued for 1-5 minutes. The entire process is performed at a temperature of 20-50° C. depending of the lipid used. IV—Evaporation Following Surface Coating In order to coat bone filler particles, the particles are added to the mixture of stage III followed by evaporation of the volatile organic solvents. The entire process is performed at a temperature of 40-50° C. The ratio between the volume and the percentage of solids in the mixture of stage III and the mass of the bone particles will determine the release period of the drug post hydration of the coated particles. V—Vacuum Drying Coated bone particles are vacuum-dried for storage. […] The rate of sustained release of Doxycycline hyclate encapsulated within the matrix composition of the present invention was measured and compared to the release rate of the drug from bone particles socked with free DOX solution (having the same amount of DOX).
The release profile of DOX from a mixture of coated and non coated bone (xenografts bovine—commercial—BioOss) particles was measured. The coated particles were mixed with similar plain (not-coated) bone particles in a ratio of 1:4. […] The formulation in this study comprised PLGA 75:25 and DPPC.
The release of DOX from bone particles (12 mg/sample) coated with different mass of the DOX containing matrix formulation was compared. Following hydration (5% serum at 37° C.) the duration of release of 90% of the initial DOX amount in the formulation was monitored (FIG. 10).

[2] = Influence of polymer/lipid composition of the matrix on release rate of the entrapped agent; settings: FIG. 8
Protocol: The influence of different polymer/lipid compositions on the release rate of a given drug was measured using fluorescein entrapped within a matrix compositing PLGA (75:25), DPPC as the main phospholipid and varying amounts of lauric acid (LA) and phosphatidylethanolamine (PE) having saturated fatty acid moieties of at least 14 carbons. […] The release lasted between about 20 to about 110 days when LA:PE w/w % ratio was varied between 10:10 to 0:0 respectively (vs. the total mass of the formulation). The drug release profile from bone particles coated with matrix formulation comprising PE versus bone particles coated with matrix formulation comprising cholesterol was compared.
The fact that different polymer/lipid compositions influence the release rate can be used to fulfill different clinical needs. […] In contrast, when the antibiotic drug, DOX, was associated with a slow degrading polymer such as PLGA 85:15 and a 18:0 phospholipid such as DSPC, complete release of the drug was accomplished after more than 50 days (FIG. 8).

[3] = Drug release from absorbable gelatin sponge containing the sustained release formulation (HPLC); settings: 5% serum at 37° C.
Protocol: A solution containing PLGA—75:25, PC 16:0, cholesterol 10% and Doxycycline hyclate (DOX) 10% was injected into the center of the absorbable gelatin sponge foam cube (Gelatamp. ROEKO). The overall content of DOX in the injected formulation was 380 μg in 25 μl. The solvent was evaporated in a 37° C. incubator and subsequently over night under vacuum. As a control, the common use of pre-wetting with a similar dose of DOX (380 μg) solution was injected into the gelatin sponge tube. Following hydration (5% serum at 37° C.) the release of DOX from the gelatin sponge cube into the surrounding was detected and quantified by HPLC.

Compound	kinetics of co-release from the surface of coated bone particles [1]	time to full release of the drug ([2]; PLGA 50:50 and 14:0 phospholipid DMPC)	share of encapsulated DOX released following zero order kinetics ([1]; DOX encapsulated in the formulation, FIG. 2)	period of constant release of DOX [1]	period of constant release of DOX ([1]; listed as Doxycycline hyclate)	release kinetics ([1]; bone filler particles coated with matrix PLGA 85:15, cholesterol, DSPC, FIG. 2)	dependence of duration of release of 90% of DOX on formulation mass ([1]; bone particles 12 mg/sample coated with different mass of formulation, 5% serum at 37° C., FIG. 10)	drug released in 3 hours after hydration ([1]; bone particles coated with PLGA 75:25 / DPPC formulation, mixed 1:4 with non-coated particles, 5% serum at 37° C.)	release profile, matrix comprising PE (DMPE) versus matrix comprising cholesterol ([1]; coated bone particles, 5% serum at 37° C., FIG. 7)	effect of presence of non-coated particles on release of DOX from the formulation ([1]; coated:non-coated bone particles 1:4, 5% serum at 37° C., PLGA 75:25 and DPPC)	drug released in 3 hours after hydration ([1]; uncoated bone particles soaked with free DOX (control), 5% serum at 37° C.)	time to complete release of the drug ([2]; PLGA 85:15 and 18:0 phospholipid DSPC)	DOX released immediately into the medium ([3]; control: gelatin sponge pre-wetted with DOX solution (380 μg))	DOX released into the medium immediately after hydration ([3]; gelatin sponge (Gelatamp) with PLGA 75:25, PC 16:0, cholesterol 10%, DOX 10%, 380 μg DOX)	period of gradual release of the rest of the drug ([3]; gelatin sponge with PLGA 75:25, PC 16:0, cholesterol 10%, DOX 10%)
CCCCCCCCCCCCCCCC(=O)OC[C@H](COP(=O)([O-])OCC[N+](C)(C)C)OC(=O)CCCCCNc1ccc([N+](=O)[O-])c2nonc12 [NBD-PC, 1-palmitoyl-2-{6-[(7-nitro-2-1,3-benzoxadiazol-4-yl)amino]hexanoyl}-sn-glycero-3-phosphocholine]	zero order kinetics														
CC(C(=O)O)c1ccc(-c2ccccc2)c(F)c1 (stereo not shown) [NSAID, Flurbiprofen]		≤ 10 days													
Doxycycline hyclate	zero order kinetics		~70%	at least 3 weeks	about three	zero order kinetics	linearly depended on the formulation mass	about 15%	behaves similarly	not affected	88%	more than 50 days	total amount	about 40%	more than 7 days
